Measured values reported in patent US20250270191A1, “QUINOLONE BCL6 BIFUNCTIONAL DEGRADERS” (Treeline Biosciences, Inc., priority 2022, published 2025).

Key:
[1] = molecular target: T1, Human BCL6 protein (N-terminal HiBiT tagged BCL6 in HT1080 cells) (Homo sapiens, UniProt P41182+Q96SW2); assay: HiBiT based BCL6 degradation assay; assay type: cell-based; details: HT1080 cells expressing N-terminal HiBiT tagged BCL6; 5 hours incubation; BCL6 degradation normalized with DMSO control
T1 construct: Human BCL6 protein coding open reading frame; expressed in transfected cells; host or cells: HT1080 (ATCC CCL-121), stably transduced with lentivirus pLV-UBC-N-HiBiT-BCL6-PGK-puro
Procedure, shortened: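 HT1080 cells stably expressing N-terminal HiBiT-BCL6 were treated with compound dilution series for 5 h at 37° C. in RPMI 1640 with 10% FBS. HiBiT lytic luminescence read after 15 min; degradation normalized to DMSO, with curves fitted by four-parameter logistic model.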

[2] = Pharmacokinetic assessment in male CD-1 mice (IV and PO); assay type: in vivo; details: mouse, plasma; for clearance: clearance (IV), commonly 1 mg/kg; for clearance / AUC(0-inf): non-compartmental model; for bioavailability: oral bioavailability, PO commonly 10 mg/kg vs IV commonly 1 mg/kg; for Cmax / AUC(0-inf): route not given
Protocol: Pharmacokinetics (PK) studies were conducted on male CD-1 mice by two delivery routes: intravenous (IV) injection and oral gavage (PO). Mice for the IV group (n=3) were allowed free access to food and water and mice for the PO group (n=3) were fasted 6-8 hours prior to dosing. The test articles were formulated in solution for the IV route (commonly 5% DMSO/10% Solutol HS15/85% water (pH 5)) and solution or suspension for the PO route (commonly 100% PEG400). On the day of the experiment, test article was administered via vein injection (commonly 1 mg/kg) for IV route or via oral gavage (commonly 10 mg/kg) for PO route, respectively. Blood samples were collected via the saphenous vein using a needle (commonly 20G) at 0.83 to 24 hours post dose. Approximately 30 μL of blood per timepoint was collected into pre-chilled tubes using K2EDTA as the anti-coagulant. After collection of blood samples at each time point, the blood samples were stored on ice. Blood samples were centrifuged within 0.5 hour of collection to separate plasma. Centrifugation was conducted at 2500×g for 15 minutes at 4° C. Plasma samples were immediately acidified (commonly 0.1M sodium citrate (pH=5) buffer). The samples were then submitted to LC-MS/MS for sample analysis. Pharmacokinetics parameters, including clearance (IV), area under the curve (AUC), and oral bioavailability (% F) were calculated by non-compartmental model.

Structure (SMILES)	Ymin (5 hr) [1]	clearance [2] [mL/min/kg]	bioavailability [2] [%]	Cmax [2] [nM]	AUC(0-inf) [2] [µM·h]
CNC(=O)COc1cc2cc(Nc3nc(N4CCN(CC5CCN(c6cccc7c(C8CCC(=O)NC8=O)nn(C)c67)CC5)CC4)ncc3Cl)ccc2n(C)c1=O (centres unmarked) [Compound 101, 2-((6-((5-chloro-2-(4-((1-(3-(2,6-dioxopiperidin-3-yl)-1-methyl-1H-indazol-7-yl)piperidin-4-yl)methyl)piperazin-1-yl)pyrimidin-4-yl)amino)-1-methyl-2-oxo-1,2-dihydroquinolin-3-yl)oxy)-N-methylacetamide]	++++ (Ymin ≤ 25%)	12.8	76.4	3400	12.6
CNC(=O)COc1cc2cc(Nc3nc(N4CCN(CC5CCN(c6ccc7c(C8CCC(=O)NC8=O)nn(C)c7c6)CC5)CC4)ncc3Cl)ccc2n(C)c1=O (centres unmarked) [Compound 102, 2-((6-((5-chloro-2-(4-((1-(3-(2,6-dioxopiperidin-3-yl)-1-methyl-1H-indazol-6-yl)piperidin-4-yl)methyl)piperazin-1-yl)pyrimidin-4-yl)amino)-1-methyl-2-oxo-1,2-dihydroquinolin-3-yl)oxy)-N-methylacetamide]	+++ (25% < Ymin ≤ 50%)	10.8	67.5	2550	13.5
CC(=O)COc1cc2cc(Nc3nc(N4CCC5(CCN(CC6CCN(c7ccc8c(C9CCC(=O)NC9=O)nn(C)c8c7)CC6)CC5)CC4)ncc3Cl)ccc2n(C)c1=O (centres unmarked) [Compound 348, 3-(6-(4-((9-(5-chloro-4-((1-methyl-2-oxo-3-(2-oxopropoxy)-1,2-dihydroquinolin-6-yl)amino)pyrimidin-2-yl)-3,9-diazaspiro[5.5]undecan-3-yl)methyl)piperidin-1-yl)-1-methyl-1H-indazol-3-yl)piperidine-2,6-dione]	++++ (Ymin ≤ 25%)	–	–	–	–
